Reference: patent publication US12540131B2 (Merck Sharp & Dohme LLC, priority 2019, dated 2026)

Target: GST tagged truncated human mutant G2019S LRRK2 (Homo sapiens (Human), UniProt Q5S007, G2019S)
Assay: LRRK2 Km ATP LanthaScreen Assay
Assay type: biochemical
Settings: G2019S LRRK2, 134 μM ATP (Km ATP), mean values
Outline: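 Enzyme (GST-tagged, truncated) was preincubated with compound for 15 min at RT in 50 mM Tris pH 8.5, 10 mM MgCl2, 0.01% Brij-35, 1 mM EGTA, 2 mM DTT and 0.05 mM orthovanadate. Fluorescein-LRRKtide and 134 μM ATP (Km) were then added for 90 min. EDTA and Tb-anti-pERM antibody stopped the reaction; the TR-FRET 520/495 ratio gave 4-parameter IC50s, reported as mean pIC50.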

Chain of GST tagged truncated human mutant G2019S LRRK2 (Q5S007 970-2527 G2019S): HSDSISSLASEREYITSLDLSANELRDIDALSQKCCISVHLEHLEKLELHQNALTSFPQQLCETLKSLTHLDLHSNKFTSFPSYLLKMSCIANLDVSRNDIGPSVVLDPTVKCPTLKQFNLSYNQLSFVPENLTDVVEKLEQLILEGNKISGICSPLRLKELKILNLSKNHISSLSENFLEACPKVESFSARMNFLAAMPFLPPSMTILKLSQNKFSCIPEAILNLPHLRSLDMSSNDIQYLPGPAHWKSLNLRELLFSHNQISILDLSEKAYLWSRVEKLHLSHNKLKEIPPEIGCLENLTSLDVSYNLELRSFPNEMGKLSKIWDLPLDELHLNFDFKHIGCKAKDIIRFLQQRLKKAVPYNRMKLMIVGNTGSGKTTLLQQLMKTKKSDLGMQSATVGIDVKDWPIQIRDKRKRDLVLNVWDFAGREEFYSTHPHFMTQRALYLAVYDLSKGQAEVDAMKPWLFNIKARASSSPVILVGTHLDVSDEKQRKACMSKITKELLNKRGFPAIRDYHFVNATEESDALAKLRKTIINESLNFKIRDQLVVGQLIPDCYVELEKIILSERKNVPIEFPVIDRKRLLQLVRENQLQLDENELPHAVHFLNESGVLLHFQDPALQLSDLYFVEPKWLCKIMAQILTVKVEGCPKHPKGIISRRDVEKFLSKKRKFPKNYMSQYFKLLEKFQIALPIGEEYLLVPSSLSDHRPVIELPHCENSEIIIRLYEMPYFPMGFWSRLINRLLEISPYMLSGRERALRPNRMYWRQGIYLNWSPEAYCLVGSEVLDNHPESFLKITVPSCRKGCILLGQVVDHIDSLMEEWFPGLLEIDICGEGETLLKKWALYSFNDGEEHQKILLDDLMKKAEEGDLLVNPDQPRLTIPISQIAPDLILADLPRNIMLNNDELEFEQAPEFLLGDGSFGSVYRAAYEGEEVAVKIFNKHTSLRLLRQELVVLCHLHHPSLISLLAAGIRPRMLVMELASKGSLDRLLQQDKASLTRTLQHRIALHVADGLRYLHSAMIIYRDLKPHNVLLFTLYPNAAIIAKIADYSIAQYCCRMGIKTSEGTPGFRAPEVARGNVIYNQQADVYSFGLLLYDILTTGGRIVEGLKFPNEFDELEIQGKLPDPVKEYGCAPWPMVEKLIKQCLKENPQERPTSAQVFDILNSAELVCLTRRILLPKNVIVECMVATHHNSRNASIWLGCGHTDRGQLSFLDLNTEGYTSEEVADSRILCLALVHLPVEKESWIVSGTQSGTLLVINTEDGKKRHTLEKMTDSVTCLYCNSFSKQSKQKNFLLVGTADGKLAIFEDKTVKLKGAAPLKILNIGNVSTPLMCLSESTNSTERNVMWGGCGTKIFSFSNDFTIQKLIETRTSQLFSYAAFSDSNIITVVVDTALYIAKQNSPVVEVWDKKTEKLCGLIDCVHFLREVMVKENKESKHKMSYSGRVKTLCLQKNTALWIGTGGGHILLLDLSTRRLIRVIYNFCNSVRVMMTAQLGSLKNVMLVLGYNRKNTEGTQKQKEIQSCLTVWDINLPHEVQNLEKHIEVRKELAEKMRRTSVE

With `Cc1cc2cnc(Nc3cnn(C45CC(C4)C5)c3Cl)nc2cc1[C@@H]1CCN([C@@H]2COC[C@@H]2O)C[C@H]1F` (single isomer, unassigned) [Ex-8.33, (3S,4S)(3S,4S) or (3S,4S)(3R,4R) or (3R,4R)(3S,4S) or (3R,4R)(3R,4R) 4-[4-(2-{[1-(bicyclo[1.1.1]pentan-1-yl)-5-chloro-1H-pyrazol-4-yl]amino}-6-methylquinazolin-7-yl)-3-fluoropiperidin-1-yl]oxolan-3-ol] the “LRRK2 pIC50” value was over 9.20.
`O[C@@H]1COCC1N1CC[C@H](c2cc3nc(Nc4cnn(C5CC5(F)F)c4Cl)ncc3cc2Cl)[C@@H](F)C1` (single isomer, unassigned) [Ex-4.9, (R)(3S,4S)(3S,4S) or (R)(3S,4S)(3R,4R) or (R)(3R,4R)(3S,4S) or (R)(3R,4R)(3R,4R) or (S)(3S,4S)(3S,4S) or (S)(3S,4S)(3R,4R) or (S)(3R,4R)(3S,4S) or (S)(3R,4R)(3R,4R) 4-(4-(6-chloro-2-((5-chloro-1-(2,2-difluorocyclopropyl)-1H-pyrazol-4-yl)amino)quinazolin-7-yl)-3-fluoropiperidin-1-yl)tetrahydrofuran-3-ol] was tested, and the “LRRK2 pIC50” value was over 9.20.
With `CN1CC[C@@H](c2cc3nc(Nc4cnn(C5CC5)c4Cl)ncc3cc2Cl)[C@H](F)C1` (single isomer, unassigned) [Ex-4.39, (3S,4S) or (3R,4R) 6-chloro-N-(5-chloro-1-cyclopropyl-1H-pyrazol-4-yl)-7-(3-fluoro-1-methylpiperidin-4-yl)quinazolin-2-amine] the “LRRK2 pIC50” value was over 9.20.
In the case of `CC(C)(O)Cn1ncc(Nc2ncc3cc(Cl)c(C4CCN(C5COC5)CC4)cc3n2)c1Cl` [Ex-4.3, 1-(5-chloro-4-((6-chloro-7-(1-(oxetan-3-yl)piperidin-4-yl)quinazolin-2-yl)amino)-1H-pyrazol-1-yl)-2-methylpropan-2-ol], the “LRRK2 pIC50” value was over 9.20.
With `Cc1c(Nc2ncc3cc(Cl)c([C@@H]4CCN([C@@H]5COC[C@@H]5O)C[C@H]4F)cc3n2)cnn1C` (single isomer, unassigned) [Ex-4.255, (3S,4S)(3S,4S) or (3S,4S)(3R,4R) or (3R,4R)(3S,4S) or (3R,4R)(3R,4R) 4-(4-(6-chloro-2-((1,5-dimethyl-1H-pyrazol-4-yl)amino)quinazolin-7-yl)-3-fluoropiperidin-1-yl)tetrahydrofuran-3-ol] the “LRRK2 pIC50” value was over 9.20.
`Cc1cc2cnc(Nc3cnn(C)c3Cl)nc2cc1C1CCN([C@@H]2COC[C@@H]2O)CC1` (single isomer, unassigned) [Ex-2.78, (3S,4S) or (3R,4R) 4-(4-{2-[(5-chloro-1-methyl-1H-pyrazol-4-yl)amino]-6-methylquinazolin-7-yl}piperidin-1-yl)oxolan-3-ol] was tested, and the “LRRK2 pIC50” value was over 9.20.

In order of rising “LRRK2 pIC50” value:
1. CO[C@H]1COC[C@H]1N1CC[C@@H](c2cc3nc(Nc4cnn(C5CC5)c4Cl)ncc3cc2C)[C@H](F)C1 (single isomer, unassigned) [Ex-4.261, (3S,4S)(3S,4S) or (3S,4S)(3R,4R) or (3R,4R)(3S,4S) or (3R,4R)(3R,4R) N-(5-chloro-1-cyclopropyl-1H-pyrazol-4-yl)-7-[3-fluoro-1-(4-methoxyoxolan-3-yl)piperidin-4-yl]-6-methylquinazolin-2-amine]  7.51
2. Cc1c(Nc2ncc3cc(Cl)c(C4CCN([C@@]5(C)COC[C@H]5O)CC4)cc3n2)cnn1C (single isomer, unassigned) [Ex-2.65, (3S,4S) or (3R,4R) 4-(4-{6-chloro-2-[(1,5-dimethyl-1H-pyrazol-4-yl)amino]quinazolin-7-yl}piperidin-1-yl)-4-methyloxolan-3-ol]  7.84
3. Cc1c(Nc2ncc3cc(Cl)c(C4CCN(C[C@H](O)c5c(F)cccc5F)CC4)cc3n2)cnn1C1CC1 [Ex-4.208, (1R)-2-(4-{6-chloro-2-[(1-cyclopropyl-5-methyl-1H-pyrazol-4-yl)amino]quinazolin-7-yl}piperidin-1-yl)-1-(2,6-difluorophenyl)ethan-1-ol]  7.96
4. CC1CC(c2cc3nc(Nc4cnn(C5CC5)c4Cl)ncc3cc2Cl)CCN1C1COC1 (single isomer, unassigned) [Ex-4.107, (2S,4S) or (2R,4R) or (2S,4R) or (2R,4S) 6-chloro-N-(5-chloro-1-cyclopropyl-1H-pyrazol-4-yl)-7-(2-methyl-1-(oxetan-3-yl)piperidin-4-yl)quinazolin-2-amine]  8.52
5. CCN1CCC(c2cc3nc(Nc4cnn(CC(C)(C)O)c4Cl)ncc3cc2Cl)CC1 [Ex-4.97, 1-(5-chloro-4-{[6-chloro-7-(1-ethylpiperidin-4-yl)quinazolin-2-yl]amino}-1H-pyrazol-1-yl)-2-methylpropan-2-ol]  8.57
6. COC[C@@H](O)CN1CCC(c2cc3nc(Nc4cnn(C5CC5)c4C)ncc3cc2Cl)CC1 [Ex-4.212, (2S)-1-(4-{6-chloro-2-[(1-cyclopropyl-5-methyl-1H-pyrazol-4-yl)amino]quinazolin-7-yl}piperidin-1-yl)-3-methoxypropan-2-ol]  8.75
7. Cc1c(Nc2ncc3cc(Cl)c(C4CCN(C5(C)CCCC5O)CC4)cc3n2)cnn1C1CC1 (single isomer, unassigned) [Ex-1.20, (1R,2S) or (1S,2R) or (1S,2S) or (1R,2R) 2-(4-(6-chloro-2-((1-cyclopropyl-5-methyl-1H-pyrazol-4-yl)amino)quinazolin-7-yl)piperidin-1-yl)-2-methylcyclopentan-1-ol]  8.84
8. F[C@H]1CN(C2COC2)CC[C@@H]1c1cc2nc(Nc3cnn(C4CC4(F)F)c3Cl)ncc2cc1Cl (single isomer, unassigned) [Ex-8.30, (R)(3S,4S) or (S)(3S,4S) or (R)(3R,4R) or (S)(3R,4R) 6-chloro-N-[5-chloro-1-(2,2-difluorocyclopropyl)-1H-pyrazol-4-yl]-7-[3-fluoro-1-(oxetan-3-yl)piperidin-4-yl]quinazolin-2-amine]  8.96
9. C[C@@]1(N2CCC(c3cc4nc(Nc5ccnn5C5CC5)ncc4cc3Cl)CC2)COC[C@@H]1O (single isomer, unassigned) [Ex-2.85, (3S,4S) or (3R,4R) 4-(4-{6-chloro-2-[(1-cyclopropyl-1H-pyrazol-5-yl)amino]quinazolin-7-yl}piperidin-1-yl)-4-methyloxolan-3-ol]  9.03
10. O[C@H]1COC[C@H]1N1CC[C@@H](c2cc3nc(Nc4cnn(C56CC(C5)C6)c4)ncc3cc2Cl)[C@H](F)C1 (single isomer, unassigned) [Ex-4.154, (3S,4S)(3S,4S) or (3S,4S)(3R,4R) or (3R,4R)(3S,4S) or (3R,4R)(3R,4R) 4-[4-(2-{[1-(bicyclo[1.1.1]pentan-1-yl)-1H-pyrazol-4-yl]amino}-6-chloroquinazolin-7-yl)-3-fluoropiperidin-1-yl]oxolan-3-ol]  9.06
11. CN1CC[C@H](c2cc3nc(Nc4cnn(CC(C)(C)O)c4Cl)ncc3cc2Cl)[C@@H](F)C1 (single isomer, unassigned) [Ex-4.23, (3S,4S) or (3R,4R) 1-(5-chloro-4-{[6-chloro-7-(3-fluoro-1-methylpiperidin-4-yl)quinazolin-2-yl]amino}-1H-pyrazol-1-yl)-2-methylpropan-2-ol]  9.08
12. Cc1cc2cnc(Nc3cnn(CC(C)(C)O)c3Cl)nc2cc1[C@@H]1CCN(C2COC2)C[C@H]1F (single isomer, unassigned) [Ex-4.81, (3S,4S) or (3R,4R) 1-[5-chloro-4-({7-[3-fluoro-1-(oxetan-3-yl)piperidin-4-yl]-6-methylquinazolin-2-yl}amino)-1H-pyrazol-1-yl]-2-methylpropan-2-ol]  9.13
13. Clc1cc2cnc(Nc3cnn(C4CCC4)c3Cl)nc2cc1C1CCNCC1 [Ex-4.89, 6-chloro-N-(5-chloro-1-cyclobutyl-1H-pyrazol-4-yl)-7-(piperidin-4-yl)quinazolin-2-amine]  9.13
14. FC(F)Cn1ncc(Nc2ncc3cc(Cl)c([C@@H]4CCN(C5COC5)C[C@H]4F)cc3n2)c1Cl (single isomer, unassigned) [Ex-4.37, (3S,4S) or (3R,4R) 6-chloro-N-[5-chloro-1-(2,2-difluoroethyl)-1H-pyrazol-4-yl]-7-[3-fluoro-1-(oxetan-3-yl)piperidin-4-yl]quinazolin-2-amine]  9.15
15. COC(C)(C)Cn1ncc(Nc2ncc3cc(Cl)c(C4CCN(C5COC5)CC4)cc3n2)c1C [Ex-2.14, 6-chloro-N-[1-(2-methoxy-2-methylpropyl)-5-methyl-1H-pyrazol-4-yl]-7-[1-(oxetan-3-yl)piperidin-4-yl]quinazolin-2-amine]  9.17

Same assay, conditions: G2019S LRRK2, 134 μM ATP (Km ATP), mean values; read-out: LRRK2 pIC50 (converted)

Going from `O=S1(=O)CCC(N2CCC(c3cc4nc(Nc5cnn(CC(F)F)c5Cl)ncc4cc3Cl)CC2)C1` (racemic) [Ex-4.6, (S) and (R) 3-(4-(6-chloro-2-((5-chloro-1-(2,2-difluoroethyl)-1H-pyrazol-4-yl)amino)quinazolin-7-yl)piperidin-1-yl)tetrahydrothiophene 1,1-dioxide] to `Cc1c(Nc2ncc3cc(Cl)c(C4CCN(C5CCCC5(F)F)CC4)cc3n2)cnn1C1CC1` (single isomer, unassigned) [Ex-1.21, (S) or (R) 6-chloro-N-(1-cyclopropyl-5-methyl-1H-pyrazol-4-yl)-7-[1-(2,2-difluorocyclopentyl)piperidin-4-yl]quinazolin-2-amine], the IC50 rises from under 0.631 nM to 1.86 nM.

Work on `Cc1c(Nc2ncc3cc(Cl)c(C4CCN(C5(C)COC5)CC4)cc3n2)cnn1C1CC1(F)F` (single isomer, unassigned) [Ex-2.29, (S) or (R) 6-chloro-N-[1-(2,2-difluorocyclopropyl)-5-methyl-1H-pyrazol-4-yl]-7-[1-(3-methyloxetan-3-yl)piperidin-4-yl]quinazolin-2-amine] yielded an IC50 of 1.66 nM.
